Laboratory results: patent US10774053B2, “HIV protease inhibitors” (Gilead Sciences, Inc., priority 2017, dated 2020)
pEC50, pIC50: −log10 of the molar value. Like-named read-outs stand apart in the source and are kept apart here.

Assays:
recombinant human BACE-1 = recombinant human BACE-1 (Homo sapiens (Human), UniProt P56817); test: Beta-secretase (BACE) inhibition assay, fluorogenic enzymatic assay; assay type: biochemical
Procedure: Beta-Secretase (BACE) Inhibition Assay
Inhibitory potency against β-secretase (BACE) was measured using an enzymatic assay with a fluorogenic readout. 50 nM of recombinant human BACE-1 (R&D Systems) and test compound at one of various concentrations were added to a reaction buffer containing 20 mM sodium acetate at pH 4.8, with 0.06% Triton X-100, and 1% DMSO. […] The total volume of the assay solution was 100 μL. […] The slopes of the progress curves were the measure of reaction rates. Reaction rates were plotted as a function of inhibitor concentration, and the data were fit with a four-parameter logistic fit using Graphpad PRISM software to yield IC50 values.

[1] = system: HIV-1 (IIIB) in MT-4 cells; test: microbe, parasite or virus in culture; assay type: cell-based; conditions: for pEC50: HIV-1, read-out: MT4 EC50; for EC50: MT4, read-out: MT4 EC50 (nM)
[2] = Liver microsomal stability, human liver microsomes; conditions: human
Procedure: Liver Microsomal Stability Protocol
Test compounds and one control compound (verapamil) were tested in 3 different species in duplicate sets.
Test compound concentration: 1 uM; Protein concentration: 0.5 mg/mL (for dog, rat, and human liver microsomes); Cofactor: NADPH-Regenerating system (NRS) solution; Time-points: 2, 12, 25, 45, and 65 minutes.
Reaction Composition (in Each Incubation Well) Contains:
At an incubation temperature of 37° C., the reaction was started with addition of NADPH Regeneration System, at each time point, 25 uL of the reaction mixture was removed and added to a plate with 225 uL quenching solution (50% MeOH, 25% ACN, 25% H2O, and 200 nM labetalol as internal standard). After plates were vortexed, they were centrifuged for 30 minutes to remove proteins. About 100 μL supernatant was removed to a new plate and diluted with 150 μL water. About 20 μL of the mixture was injected into LC/MS/MS system to monitor the compound's response. In vitro measured t1/2 was used to calculate Clint values.

[3] = Human immunodeficiency virus 1, IIIB, MT4, MT-4 cells
[4] = Human immunodeficiency virus 1, IIIB

recombinant human BACE-1, sequence (P56817 46-501): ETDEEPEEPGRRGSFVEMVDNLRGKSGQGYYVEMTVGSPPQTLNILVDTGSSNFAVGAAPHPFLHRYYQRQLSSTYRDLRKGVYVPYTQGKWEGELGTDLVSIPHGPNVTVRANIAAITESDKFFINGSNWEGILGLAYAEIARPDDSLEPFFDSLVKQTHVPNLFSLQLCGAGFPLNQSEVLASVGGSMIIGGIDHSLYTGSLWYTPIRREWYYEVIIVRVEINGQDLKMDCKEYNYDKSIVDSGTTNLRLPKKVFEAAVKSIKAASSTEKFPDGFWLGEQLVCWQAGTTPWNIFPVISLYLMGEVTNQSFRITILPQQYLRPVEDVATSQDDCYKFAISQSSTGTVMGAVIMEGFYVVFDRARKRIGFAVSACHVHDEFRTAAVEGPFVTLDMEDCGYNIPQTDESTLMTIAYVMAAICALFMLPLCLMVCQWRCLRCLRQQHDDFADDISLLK

## CC(C)(C[C@]1(c2ccc(-c3cnn(C4CC4)n3)cc2)NC(=N)N([C@H](COC(=O)NC2(C(F)(F)F)CC2)c2ccc(Cl)c(-c3ncnn3C(F)F)c2)C1=O)C(F)(F)F [Compound 152]
Recombinant human BACE-1
  pIC50: < 4.00
[1]; [3]
  pEC50: 7.89
[2]; liver microsomes
  half-life at 1 uM: ≥ 6.58 h

## CC(C)(F)C[C@]1(c2ccc(-c3cnn(C(F)F)c3)cc2)NC(=N)N([C@H](COC(=O)NC2(C(F)(F)F)CC2)c2ccc(Cl)c(-n3ncnc3C(F)F)c2)C1=O [Compound 194]
Recombinant human BACE-1
  pIC50: < 4.00
[1]; [3]
  pEC50: 7.83
[2]; liver microsomes
  half-life at 1 uM: ≥ 6.58 h

## C[C@H](C(=O)NC[C@H](c1ccc(Cl)c(-n2ncnc2C(F)F)c1)N1C(=N)N[C@](CC(C)(C)C(F)(F)F)(c2ccc(-c3cnn(C4CC4)n3)cc2)C1=O)C(F)(F)F [Compound 389]
Recombinant human BACE-1
  pIC50: < 4.00
[1]; [3]
  pEC50: 7.91
[2]; liver microsomes
  half-life at 1 uM: ≥ 6.58 h

## CC1(NC(=O)OC[C@H](c2ccc(Cl)c(-c3ncn[nH]3)c2)N2C(=N)N[C@](CC(C)(C)C(F)(F)F)(c3ccc(-c4cnn(C(F)F)c4)cc3)C2=O)CC1 [Compound 32]
Recombinant human BACE-1
  pIC50: < 4.00
[1]; [3]
  pEC50: 7.16

## CC(C)(C)C[C@]1(c2ccc(-c3cnn(C(F)F)c3)cc2)NC(=N)N([C@H](COC(=O)NC(C)(C)C(F)F)c2ccc(Cl)c(-n3ncnc3C(F)F)c2)C1=O [Compound 185]
Recombinant human BACE-1
  pIC50: < 4.00
[1]; [3]
  pEC50: 7.90

## CN(C(=O)OC[C@H](c1ccc(Cl)c(-n2cncn2)c1)N1C(=N)N[C@](CC(C)(C)C)(c2ccc(-c3cnn(C4CC4)c3)cc2)C1=O)C1CC1 [Compound 244]
Recombinant human BACE-1
  pIC50: < 4.00
[1]; [3]
  pEC50: 8.12

## CC(C)(C)C[C@]1(c2ccc(-c3cnn(C(F)F)c3)cc2)NC(=N)N([C@H](COC(=O)NC2(C(F)(F)F)CC2)c2ccc(Cl)c(-c3ncnn3C(F)F)c2)C1=O [Compound 113]
Recombinant human BACE-1
  pIC50: < 4.00
[1]; [3]
  pEC50: 8.11

## CC(C)(C)C[C@]1(c2ccc(-c3cnn(C(F)F)c3)cc2)NC(=N)N([C@H](COC(=O)NC2(C(F)(F)F)CC2)c2ccc(Cl)c(-n3ncnc3C(F)F)c2)C1=O [Compound 177]
Recombinant human BACE-1
  pIC50: < 4.00
[1]; [3]
  pEC50: 8.01

## CC(C)(C)C[C@]1(c2ccc(-c3cnn(C(F)F)c3)cc2)NC(=N)N([C@H](COC(=O)N[C@@H]2CC2(F)F)c2ccc(Cl)c(-n3ncnc3C(F)F)c2)C1=O (single isomer, unassigned) [Compound 335]
Recombinant human BACE-1
  pIC50: < 4.00
[1]; MT-4 cells
  pEC50: 8.25

## CC(C)(C)C[C@]1(c2ccc(-c3ccnn3C(F)F)cc2)NC(=N)N([C@H](COC(=O)NC2(C(F)(F)F)CC2)c2ccc(Cl)c(-n3ncnc3C(F)F)c2)C1=O [Compound 212]
Recombinant human BACE-1; 50 nM recombinant human BACE-1, pH 4.8, read-out: BACE IC50
  pIC50: < 4.00
[1]; MT-4 cells
  pEC50: 7.93

## CC(C)(C)C[C@]1(c2ccc(-c3cnn(S(C)(=O)=O)c3)cc2F)NC(=N)N([C@H](COC(=O)NC2(C(F)(F)F)CC2)c2ccc(Cl)c(-n3ncnc3C(F)F)c2)C1=O [Compound 286]
Recombinant human BACE-1
  pIC50: < 4.00
[1]; [3]
  pEC50: 8.02

## CC(C)(C)C[C@]1(c2ccc(-c3cnn(C(F)F)c3)cc2)NC(=N)N([C@H](COC(=O)NCC(F)(F)F)c2ccc(Cl)c(-n3ncnc3C(F)F)c2)C1=O [Compound 218]
Recombinant human BACE-1
  pIC50: < 4.00
[1]; [3]
  pEC50: 8.00

## CC(C)(C)C[C@]1(c2ccc(-c3cnn(C(F)F)c3)cc2)NC(=N)N([C@H](COC(=O)NC2(C(F)F)CC2)c2ccc(Cl)c(-n3ncnc3C(F)F)c2)C1=O [Compound 179]
[1]; [4]
  EC50: 9.37 nM
[2]; microsomes
  half-life at 1 uM: ≥ 6.58 h

## CC(C)(C)C[C@]1(c2ccc(-c3cnn(C(F)F)c3)cc2)NC(=N)N([C@H](COC(=O)N[C@@H]2CC2C(F)(F)F)c2ccc(Cl)c(-n3ncnc3C(F)F)c2)C1=O (single isomer, unassigned) [Compound 331]
[1]; [3]
  pEC50: 7.78
[2]; liver microsomes
  half-life at 1 uM: ≥ 6.58 h

## CC(C)(C)C[C@]1(c2ccc(-c3cn[nH]n3)cc2)NC(=N)N([C@H](COC(=O)NC2(C(F)(F)F)CC2)c2ccc(Cl)c(-n3ncnc3C(F)F)c2)C1=O [Compound 372]
[1]; [3]
  pEC50: 7.33
[2]; liver microsomes
  half-life at 1 uM: ≥ 6.58 h

## CC(C)(C[C@]1(c2ccc(-c3cnn(C4CC4)n3)cc2)NC(=N)N([C@H](CNC(=O)CC(F)(F)F)c2ccc(Cl)c(-n3ncnc3C(F)F)c2)C1=O)C(F)(F)F [Compound 391]
[1]; [3]
  pEC50: 7.90
[2]; liver microsomes
  half-life at 1 uM: ≥ 6.58 h

## CC(C[C@]1(c2ccc(-c3cnn(C(F)F)c3)cc2)NC(=N)N([C@H](COC(=O)NC2(C(F)(F)F)CC2)c2ccc(Cl)c(-n3ncnc3C(F)F)c2)C1=O)CS(C)(=O)=O (some centres unmarked) [Compound 345]
[1]; [3]
  pEC50: 6.87
[2]; liver microsomes
  half-life at 1 uM: ≥ 6.58 h

## CC(C)(C)C[C@]1(c2ccc(-c3cnn(C(F)F)c3)cc2)NC(=N)N([C@H](COC(=O)NC(C)(C)C(F)F)c2ccc(Cl)c(-c3ncnn3C(F)F)c2)C1=O [Compound 90]
Recombinant human BACE-1
  pIC50: < 4.00
[1]; [3]
  pEC50: 7.91

## C[C@H](NC(=O)OC[C@H](c1ccc(Cl)c(-n2ncnc2C(F)F)c1)N1C(=N)N[C@](CC(C)(C)C)(c2ccc(-c3cnn(C(F)F)c3)cc2)C1=O)C(F)F [Compound 344]
[1]; [3]
  pEC50: 7.92
[2]; liver microsomes
  half-life at 1 uM: ≥ 6.58 h

## CC(C)(C)C[C@]1(c2ccc(-c3cnn(S(=O)(=O)C4CC4)c3)c(F)c2)NC(=N)N([C@H](COC(=O)NC2(C(F)(F)F)CC2)c2ccc(Cl)c(-n3ncnc3C(F)F)c2)C1=O [Compound 291]
[1]; [3]
  pEC50: 7.93
[2]; liver microsomes
  half-life at 1 uM: ≥ 6.58 h

## CC(C)(C)C[C@]1(c2ccc3c(C(F)F)nccc3c2)NC(=N)N([C@H](COC(=O)NC2(C(F)(F)F)CC2)c2ccc(Cl)c(-n3ncnc3C(F)F)c2)C1=O [Compound 348]
Recombinant human BACE-1
  pIC50: < 4.00
[1]; [3]
  pEC50: 8.13

## CC(C)(C)C[C@]1(c2ccc(-c3cnn(S(C)(=O)=O)c3)c(F)c2)NC(=N)N([C@H](COC(=O)NC2(C(F)F)CC2)c2ccc(Cl)c(-n3ncnc3C(F)F)c2)C1=O [Compound 303]
[1]; [3]
  pEC50: 7.95
[2]; liver microsomes
  half-life at 1 uM: ≥ 6.58 h

## CC(C)(C[C@]1(c2ccc(-c3cnn(C4CC4)n3)cc2)NC(=N)N([C@H](COC(=O)NC2(C(F)F)CC2)c2ccc(Cl)c(-n3ncnc3C(F)F)c2)C1=O)C(F)(F)F [Compound 271]
Recombinant human BACE-1
  pIC50: < 4.00
[1]; [3]
  pEC50: 7.90

## CC(C)(C)C[C@]1(c2ccc(-n3ccnn3)cc2)NC(=N)N([C@H](COC(=O)NC2(C(F)(F)F)CC2)c2ccc(Cl)c(-n3ncnc3C(F)F)c2)C1=O [Compound 351]
[1]; [3]
  pEC50: 7.75
[2]; human liver microsomes
  half-life at 1 uM: ≥ 6.58 h

## CC(C)(C)C[C@]1(c2ccc(-c3cnn(S(C)(=O)=O)c3)c(F)c2)NC(=N)N([C@H](COC(=O)NC2(C(F)(F)F)CC2)c2ccc(Cl)c(-n3ncnc3C(F)F)c2)C1=O [Compound 290]
[1]; [3]
  pEC50: 7.93
[2]; liver microsomes
  half-life at 1 uM: ≥ 6.58 h

## CC(C)(C)C[C@]1(c2ccc(-c3cnn(C(F)F)c3)cc2)NC(=N)N([C@H](COC(=O)NC(C)(C)C(F)F)c2ccc(Cl)c(-c3nccn3C(F)F)c2)C1=O [Compound 89]
[1]; [3]
  pEC50: 7.46
[2]; liver microsomes
  half-life at 1 uM: ≥ 6.58 h

## Cn1ccc(-c2ccc([C@@]3(CC(C)(C)C)NC(=N)N([C@H](COC(=O)NC4CC4(F)F)c4ccc(Cl)c(-n5ncnc5C(F)F)c4)C3=O)cc2F)n1 (some centres unmarked) [Compound 295]
[1]; [3]
  pEC50: 8.13
[2]; liver microsomes
  half-life at 1 uM: ≥ 6.58 h

## CC(C)(C)C[C@]1(c2ccc(-c3cnn(C(F)F)c3)c(F)c2)NC(=N)N([C@H](COC(=O)N[C@@H]2CC2(F)F)c2ccc(Cl)c(-n3ncnc3C(F)F)c2)C1=O [Compound 339]
[1]; [3]
  pEC50: 8.04
[2]; liver microsomes
  half-life at 1 uM: ≥ 6.58 h

## Cn1c(=O)ccc2cc([C@@]3(CC(C)(C)C)NC(=N)N([C@H](COC(=O)NC4(C(F)(F)F)CC4)c4ccc(Cl)c(-n5ncnc5C(F)F)c4)C3=O)ccc21 [Compound 349]
Recombinant human BACE-1
  pIC50: < 4.00
[1]; [4]
  EC50: 36 nM

## CC(C)(C)C[C@]1(c2ccc3nc(-c4cnn(C(F)F)c4)ccc3c2)NC(=N)N([C@H](COC(=O)NC2(C(F)(F)F)CC2)c2ccc(Cl)c(-n3ncnc3C(F)F)c2)C1=O [Compound 350]
[1]; [3]
  pEC50: 8.05
[2]; liver microsomes
  half-life at 1 uM: ≥ 6.58 h

## CC(C)(C[C@]1(c2ccc(-c3cnn(C4CC4)n3)cc2)NC(=N)N([C@H](CNC(=O)CC(F)(F)F)c2ccc(Cl)c(-c3ncnn3C(F)F)c2)C1=O)C(F)(F)F [Compound 160]
[1]; [3]
  pEC50: 7.90
[2]; liver microsomes
  half-life at 1 uM: ≥ 6.58 h
